# Assay results reported in patent publication US9421220B2, “Anti-cancer composition comprising alginate” (THE UNIVERSITY OF BIRMINGHAM EDGBASTON, priority 2009, dated 2016).
# Assays:
# [1] = system: Apc^Min/+ mouse; assay: Tumour burden in Apc^Min/+ mice; type: in vivo; conditions: for effect on tumour number, size or tumour burden compared to control mice: Apc^Min/+ mice fed control diet, sub-cutaneous injection
# Protocol: To delineate how iron mediates colorectal carcinogenesis in-vivo, further experiments were carried out using the ‘Apc^Min/+’ mouse. These mice carry a mutation which disrupts the ability of the APC tumour suppressor to bind and turnover b-catenin, and the mice develop 100's of benign adenomas.
# Apc^Min/+ mice were fed a standard control diet (n=17) or an iron deficient diet (n=11) immediately post weaning with tumour burden being assessed at 80 days of age. In addition mice were fed a high iron diet (standard control diet supplemented with 2% reduced pentacarbonyl iron (Harlan UK)) (n=6) but in these animals tumour burden was assessed at 45 days of age. A fourth group of Apc^Min/+ mice (n=9), were fed the standard control diet but upon reaching 50 days of age were injected sub-cutaneously with iron dextran (50 mgs) with tumour burden being assessed at 85 days of age. A fifth group of Apc^Min/+ mice (n=9), were fed the standard control diet and post weaning were injected daily sub-cutaneously with the systemic iron chelator desferioxamine (200 mgs/kg).
# [2] = system: cells containing a mutant APC protein; conditions: cells deficient in the APC protein exposed to iron; cited from earlier work
# [3] = system: normal human colonic cells; conditions: normal cells exposed to increased levels of iron; cited from earlier work
Compound,"effect on tumour number, size or tumour burden compared to control mice [1]",tumour burden ([1]; Apc^Min/+ mice on iron deficient diet co-administered with iron dextran),cellular viability and proliferation [2],phenotypic effects [3]
iron dextran,no effect,suppression,–,–
[Fe] [iron],–,–,increased,no phenotypic effects
CC(=O)N(O)CCCCCNC(=O)CCC(=O)N(O)CCCCCNC(=O)CCC(=O)N(O)CCCCCN [desferioxamine],no effect,–,–,–
